Test results: PubChem BioAssay AID1963424 (Molecular Pharmacology Branch, DTP, NCI, 2024)

System: 327498-153-R-J2-PDC complex spheroid growth, % test/control
Experiment: Anticancer human tumor 327498-153-R-J2-PDC patient-derived uterine carcinosarcoma cell line growth inhibition [Asc]
Settings: for IC50: curve of first compound; for viability, T/C: stronger effect = lower value
Outline: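 Tumor cells were grown as complex spheroids with human endothelial cells (HUVEC) and human mesenchymal stem cells as stroma. Agents were tested alone and in combination, in half-log steps down from the clinical Cmax, or from 10 microM where Cmax was unknown.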

[1] = second compound 0.1 µM, first compound 0.0316 µM
[2] = second compound 0.1 µM, first compound 0.1 µM
[3] = second compound 0.316 µM, first compound 0.0316 µM
[4] = second compound 0.316 µM, first compound 0.1 µM
[5] = second compound 1 µM, first compound 0.0316 µM
[6] = second compound 1 µM, first compound 0.1 µM
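Note: spheroids exposed to compound for 7 days after 3 days of growth.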
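Throughout, for viability, T/C: 100% = DMSO vehicle control wells.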

**Q.** What does the source list for `Cn1ncnc1[C@H]1c2n[nH]c(=O)c3cc(F)cc(c23)N[C@@H]1c1ccc(F)cc1` + CNC(C)C(=O)NC1CN(S(=O)(=O)c2cccc(S(=O)(=O)N3CCC4CCC(C(=O)NC(c5ccccc5)c5ccccc5)N4C(=O)C(NC(=O)C(C)NC)C3)c2)CCC2CCC(C(=O)NC(c3ccccc3)c3ccccc3)N2C1=O?
**A.** IC50 (second compound 0.01 µM): 16.2 nM; IC50 (second compound 0.0316 µM): 17 nM; IC50 (second compound 0.1 µM): 17.7 nM; IC50 (second compound 0.316 µM): 14.7 nM; IC50 (second compound 1 µM): 16.6 nM; viability, T/C (second compound 0.01 µM, first compound 0.000316 µM): 98.5%; viability, T/C (second compound 0.01 µM, first compound 0.001 µM): 109%; viability, T/C (second compound 0.01 µM, first compound 0.00316 µM): 101%; viability, T/C (second compound 0.01 µM, first compound 0.01 µM): 68%; viability, T/C (second compound 0.01 µM, first compound 0.0316 µM): 24.8%; viability, T/C (second compound 0.01 µM, first compound 0.1 µM): 8.36%; viability, T/C (second compound 0.0316 µM, first compound 0.000316 µM): 98.9%; viability, T/C (second compound 0.0316 µM, first compound 0.001 µM): 111%; viability, T/C (second compound 0.0316 µM, first compound 0.00316 µM): 98.2%; viability, T/C (second compound 0.0316 µM, first compound 0.01 µM): 73.8%; viability, T/C (second compound 0.0316 µM, first compound 0.0316 µM): 22.6%; viability, T/C (second compound 0.0316 µM, first compound 0.1 µM): 8.68%; viability, T/C (second compound 0.1 µM, first compound 0.000316 µM): 98.2%; viability, T/C (second compound 0.1 µM, first compound 0.001 µM): 106%; viability, T/C (second compound 0.1 µM, first compound 0.00316 µM): 91.2%; viability, T/C (second compound 0.1 µM, first compound 0.01 µM): 73.3%; viability, T/C [1]: 27.1%; viability, T/C [2]: 7.43%; viability, T/C (second compound 0.316 µM, first compound 0.000316 µM): 100%; viability, T/C (second compound 0.316 µM, first compound 0.001 µM): 112%; viability, T/C (second compound 0.316 µM, first compound 0.00316 µM): 111%; viability, T/C (second compound 0.316 µM, first compound 0.01 µM): 64.7%; viability, T/C [3]: 21.5%; viability, T/C [4]: 8%; viability, T/C (second compound 1 µM, first compound 0.000316 µM): 99.3%; viability, T/C (second compound 1 µM, first compound 0.001 µM): 105%; viability, T/C (second compound 1 µM, first compound 0.00316 µM): 107%; viability, T/C (second compound 1 µM, first compound 0.01 µM): 68.9%; viability, T/C [5]: 25.3%; viability, T/C [6]: 8.08%

**Q.** Which results are given for `NC(=O)C(=Cn1cnc(-c2cc(C(F)(F)F)cc(C(F)(F)F)c2)n1)c1cncnc1` + CCN1C(C(=O)NC23CCC(C(=O)O)(CC2)CC3)C(c2cccc(Cl)c2F)C2(C(=O)Nc3cc(Cl)ccc32)C12CCCCC2?
**A.** IC50 (second compound 0.03 µM): 24.8 nM; IC50 (second compound 0.0949 µM): 8.01 nM; IC50 (second compound 0.3 µM): < 0.949 nM; IC50 (second compound 0.949 µM): < 0.949 nM; IC50 (second compound 3 µM): < 0.949 nM; viability, T/C (second compound 0.03 µM, first compound 0.000949 µM): 102%; viability, T/C (second compound 0.03 µM, first compound 0.003 µM): 83.2%; viability, T/C (second compound 0.03 µM, first compound 0.00949 µM): 75.5%; viability, T/C (second compound 0.03 µM, first compound 0.03 µM): 49.4%; viability, T/C (second compound 0.03 µM, first compound 0.0949 µM): 8.49%; viability, T/C (second compound 0.03 µM, first compound 0.3 µM): 1.47%; viability, T/C (second compound 0.0949 µM, first compound 0.000949 µM): 73.5%; viability, T/C (second compound 0.0949 µM, first compound 0.003 µM): 70.8%; viability, T/C (second compound 0.0949 µM, first compound 0.00949 µM): 45.9%; viability, T/C (second compound 0.0949 µM, first compound 0.03 µM): 16.1%; viability, T/C (second compound 0.0949 µM, first compound 0.0949 µM): 5.19%; viability, T/C (second compound 0.0949 µM, first compound 0.3 µM): 0.5%; viability, T/C (second compound 0.3 µM, first compound 0.000949 µM): 40.5%; viability, T/C (second compound 0.3 µM, first compound 0.003 µM): 33.2%; viability, T/C (second compound 0.3 µM, first compound 0.00949 µM): 22.8%; viability, T/C (second compound 0.3 µM, first compound 0.03 µM): 5.64%; viability, T/C (second compound 0.3 µM, first compound 0.0949 µM): 1.54%; viability, T/C (second compound 0.3 µM, first compound 0.3 µM): 0.36%; viability, T/C (second compound 0.949 µM, first compound 0.000949 µM): 9.07%; viability, T/C (second compound 0.949 µM, first compound 0.003 µM): 5.81%; viability, T/C (second compound 0.949 µM, first compound 0.00949 µM): 5.57%; viability, T/C (second compound 0.949 µM, first compound 0.03 µM): 1.96%; viability, T/C (second compound 0.949 µM, first compound 0.0949 µM): 0.72%; viability, T/C (second compound 0.949 µM, first compound 0.3 µM): 0.32%; viability, T/C (second compound 3 µM, first compound 0.000949 µM): 4.84%; viability, T/C (second compound 3 µM, first compound 0.003 µM): 2.37%; viability, T/C (second compound 3 µM, first compound 0.00949 µM): 1.32%; viability, T/C (second compound 3 µM, first compound 0.03 µM): 1%; viability, T/C (second compound 3 µM, first compound 0.0949 µM): 0.92%; viability, T/C (second compound 3 µM, first compound 0.3 µM): 0.41%

**Q.** Which results are given for `C#Cc1c(F)ccc2cc(O)cc(-c3ncc4c(N5CC6CCC(C5)N6)nc(OCC56CCCN5CC(F)C6)nc4c3F)c12` (stereo not given) + Cc1c(S(C)(=O)=O)c(-c2cc(F)cc(N3CCN(c4ccc(NS(=O)(=O)c5ccc(NC(CCN6CCC(C(=O)OCCCP(=O)(O)O)CC6)CSc6ccccc6)c(S(=O)(=O)C(F)(F)F)c5)cc4)CC3)c2)c(-c2ccc(Cl)cc2)n1C(C)C?
**A.** IC50 (second compound 0.1 µM): > 10000 nM; IC50 (second compound 0.316 µM): 5990 nM; IC50 (second compound 1 µM): 3180 nM; IC50 (second compound 3.16 µM): 5040 nM; IC50 (second compound 10 µM): > 10000 nM; viability, T/C [1]: 97.2%; viability, T/C [2]: 107%; viability, T/C (second compound 0.1 µM, first compound 0.316 µM): 82.5%; viability, T/C (second compound 0.1 µM, first compound 1 µM): 75.1%; viability, T/C (second compound 0.1 µM, first compound 3.16 µM): 61.7%; viability, T/C (second compound 0.1 µM, first compound 10 µM): 50.1%; viability, T/C [3]: 102%; viability, T/C [4]: 88.9%; viability, T/C (second compound 0.316 µM, first compound 0.316 µM): 88.3%; viability, T/C (second compound 0.316 µM, first compound 1 µM): 65.8%; viability, T/C (second compound 0.316 µM, first compound 3.16 µM): 53.8%; viability, T/C (second compound 0.316 µM, first compound 10 µM): 47.3%; viability, T/C [5]: 90.6%; viability, T/C [6]: 101%; viability, T/C (second compound 1 µM, first compound 0.316 µM): 81%; viability, T/C (second compound 1 µM, first compound 1 µM): 71.1%; viability, T/C (second compound 1 µM, first compound 3.16 µM): 47.9%; viability, T/C (second compound 1 µM, first compound 10 µM): 43.8%; viability, T/C (second compound 3.16 µM, first compound 0.0316 µM): 96.6%; viability, T/C (second compound 3.16 µM, first compound 0.1 µM): 87.5%; viability, T/C (second compound 3.16 µM, first compound 0.316 µM): 70.8%; viability, T/C (second compound 3.16 µM, first compound 1 µM): 69.7%; viability, T/C (second compound 3.16 µM, first compound 3.16 µM): 51.4%; viability, T/C (second compound 3.16 µM, first compound 10 µM): 44.4%; viability, T/C (second compound 10 µM, first compound 0.0316 µM): 166%; viability, T/C (second compound 10 µM, first compound 0.1 µM): 165%; viability, T/C (second compound 10 µM, first compound 0.316 µM): 150%; viability, T/C (second compound 10 µM, first compound 1 µM): 145%; viability, T/C (second compound 10 µM, first compound 3.16 µM): 133%; viability, T/C (second compound 10 µM, first compound 10 µM): 86.6%
